# Measurements reported in patent US10975059B2, “Small molecule BRD4 modulators for HIV epigenetic regulation” (The Board of Regents of The University of Texas System, priority 2017, dated 2021).
# Columns and labels:
# [1] = test system: latent HIV in J-Lat cells (10.6); assay: HIV-activation screening in J-Lat cells (GFP, flow cytometry); format: cell-based; conditions: compound alone, 10 μM, 24 hours
# [2] = test system: RNAPII; assay: Western blot of phosphorylated RNAPII (Ser 2 CTD) in J-Lat cells; format: cell-based; conditions: vs PMA alone
# Protocol: (§1) Target protein expression in WT and BRD4-KO J-Lat cells (10.6 full length) were measured by western blotting. […] The cells were harvested, washed and then lysed in NP-40 cell lysis buffer (containing 20 mM Tris-HCl, […] of NaCl, 0.2 mM EDTA, 1% NP40, protease inhibitor cocktail, and 1 mM PMSF) by rotation at RT for 1 hour. Cell lysates were centrifuged at 4° C. and the supernatants were collected, followed by measurement of total protein concentration in the supernatants by using Microplate BCA Protein Assay Kit. 20 μg proteins were separated using SDS-PAGE gel and then transferred to Immuno-Blot PVDF Membrane. The membrane was blocked (5% skimmed milk powder in TBST) and then incubated with individual protein-specific antibodies (CDK9, Cyclin T1, Cyclin T2, ELL2, p-RNA Pol II-CTD (Ser2), BRD2, BRD4, NF-κB, or cellular GAPDH) for overnight at 4° C. After washing three times in TBST, the membrane was incubated with anti-rabbit or anti-mouse IgG-HRP, depending on the primary antibody used. The membrane was incubated in Super Signal West Pico Chemiluminescent Substrate. Molecular weights of target proteins were assessed by comparing with markers.
# [3] = test system: BRD4 at HIV 5'-LTR; assay: CHIP-qPCR, BRD4 binding to HIV promoter; format: cell-based; conditions: activated and resting J-Lat, vs no compound control
# [4] = test system: PMA-induced HIV activation in J-Lat cells (10.6); assay: HIV-suppression model, PMA-stimulated J-Lat cells (GFP, flow cytometry); format: cell-based; conditions: 24 hours; for effect on PMA-induced HIV activation (GFP+%): PMA + compound 10 μM
# [5] = test system: HIV transcription in J-Lat cells; assay: qPCR of HIV RNAs (Gag, 3'-LTR) in J-Lat cells; format: cell-based; conditions: for HIV mRNAs (Gag and 3'-LTR RNA levels): PMA-activated J-Lat, 24 hours after treatment
# [6] = test system: BD1 and BD2 of BET proteins (BRD4, BRD2, BRD3, BRDT); assay: TR-FRET binding to BD1 and BD2 of BET proteins
# Text: Details are available in the Supplementary Methods.
# [7] = test system: HIV LTR chromatin in J-Lat cells; assay: High-resolution MNase nucleosomal mapping of HIV LTR; format: cell-based; conditions: 10 μM 24 hours, then PMA 24 hours, vs NC
# [8] = test system: Tat at HIV 5'-LTR; assay: CHIP-qPCR, Tat recruitment to HIV promoter; format: cell-based; conditions: J-Lat, 10 μM, 24 hours
# Protocol: ChIP assay was performed using a ChIP-IT Express Kit (Active Modify, USA) according to the manufacturer's instructions. […] Cells were harvested and washed. Cell pellets were re-suspended in 10 ml PBS buffer and fixed with 37% formaldehyde to cross-link DNA and proteins. The fixation reaction was stopped by adding 1.1 ml of 10× Glycine for 5 min at RT. Cells were centrifuged and the supernatants were removed, followed by re-suspension of cells in ice-cold Lysis Buffer on ice for 30 min. Cells were centrifuged at 5,000 rpm for 10 min to pellet the nuclei. Nuclei pellets were re-suspended in 700 μl shearing buffer plus 3.2 μl of PIC and 3.2 μl of PMSF, and were then sonicated using the determined conditions. Sheared chromatin samples were used to set up ChIP reactions by adding the magnetic beads and 5 μg of anti-Tat (1 mg/ml, Thermo Fisher, MA1-71509) or control mouse IgG (2.5 mg/ml, Cell Signaling, #5415) antibody (overnight rotation at 4° C.). After several times of washing by ChIP buffers 2, the chromatin was reverse cross-linked and treated with proteinase K. The eluted DNA were cleaned up with phenol-chloroform and used in real time-PCR. The results were analyzed by the fold enrichment method with the formula % enrichment=2−(CT IP−CT mock).
# [9] = test system: CDK9 binding to Tat; assay: Tat Co-IP, CDK9 binding, J-Lat cells; format: cell-based; conditions: vs PMA alone, 24 hours
# Protocol: Treated J-Lat cells were harvested, washed and lysed in 1 ml NP-40 cell lysis buffer as described above in western blotting. The lysate was cleared by centrifugation and the supernatant was collected. Protein concentration in collected supernatant was measured (Microplate BCA Protein Assay Kit). Equal amounts of proteins from different treatments were incubated with […] of anti-Tat (Thermo Fisher, Cat. No. MA1-71509) or anti-BRD4 (Thermo Fisher, Cat. No. 730037) antibody or normal mouse IgG (Cell Signaling, Cat. No. 5415) for overnight at 4° C. The immune complexes were precipitated by 50 μl protein G-conjugated magnetic beads (Thermo Fisher, Cat. No. 10003D). Beads were washed 6 times using cold NP-40 cell lysis buffer and then subjected to SDS-PAGE electrophoresis. The membranes were immunoblotted with anti-CDK9 primary antibody, followed by incubation with HRP-conjugated secondary antibody.
# [10] = test system: ELL2; assay: ELL2 protein (WB) and mRNA (Q-PCR) in J-Lat cells; format: cell-based; conditions: vs PMA alone, WT J-Lat, 24 hours
# Protocol: as §1
# [11] = test system: human PBMCs; format: cell-based
# [12] = target: BRD4 BD2 (Homo sapiens, UniProt O60885); assay: TR-FRET binding assay, BRD4 BD2
# [13] = test system: J-Lat cells; assay: J-Lat cell viability (Aqua blue, flow cytometry)
# [14] = test system: HIV in human PBMCs; assay: qPCR of HIV DNA and Gag RNA in in vitro infected PBMCs; format: cell-based; conditions: PHA-activated PBMCs, 4 μM
# [15] = test system: HIV in BRD4-KO J-Lat cells; format: cell-based
# [16] = test system: HIV transcription in PBMC of HIV-infected subjects; assay: Ex vivo HIV Gag RNA in PBMCs of viremic HIV-infected subjects (RV21); format: cell-based; conditions: 2 days
# [17] = target: CDK9 binding to BRD4 (Homo sapiens, UniProt O60885); assay: BRD4 Co-IP, CDK9 binding, J-Lat cells; format: cell-based; conditions: vs PMA alone, 24 hours
# [18] = test system: non-specific cellular proteins; assay: Binding to a broader panel of non-specific cellular proteins
# [19] = test system: RV254 PBMCs; assay: Viability of RV254 PBMCs; format: cell-based, human; conditions: vs ART alone or NC
# [20] = test system: HIV in unactivated human CD4 T cells; assay: HIV in un-activated (resting) CD4 T cells (intracellular p24); format: cell-based; conditions: 2 μM and 4 μM, Day 6
# Protocol: We also evaluated the impact of ZL0580 on HIV in un-activated (resting) CD4 T cells. Normal PBMCs were not stimulated but directly infected with HIV by spinoculation. 24 hours after HIV infection, cells were extensively washed and treated with ZL0580 (2 μM and 4 μM) or not (NC). As expected, compared to activated cells, HIV replication kinetics in un-activated CD4 T cells is slower.
# [21] = test system: HIV (US-1 strain) in human CD4 T cells; format: cell-based; conditions: for HIV infection in activated CD4 T cells (intracellular p24): 0-8 μM, three days after viral exposure
# [22] = target: BRD4 BD1 domain (Homo sapiens, UniProt O60885); assay: TR-FRET binding assay, BRD4 BD1
# [23] = test system: HIV particles from RV21 PBMC; assay: HIV particles in culture supernatants, reporter TZM-bl assay; format: cell-based; conditions: vs no treatment control
# Text: We next assessed assess the HIV-suppressive activity of ZL0580 ex vivo. RV21 is ART naïve, chronic HIV infection established by US MHRP and use of PBMC samples from this cohort in our group has been previously published (25). PBMC from RV21 subjects (n=8) were stimulated with PHA to induce HIV transcriptional activation in the absence (0 Mm) or presence of ZL0580 ([…]).
# [24] = target: T1, non-BET bromodomain protein CBP (Homo sapiens, UniProt Q92793); assay: TR-FRET binding assay, CBP
# T1 construct: purchased Cayman Chemical
# T1 sequence (Q92793 1085-1192 limits assumed): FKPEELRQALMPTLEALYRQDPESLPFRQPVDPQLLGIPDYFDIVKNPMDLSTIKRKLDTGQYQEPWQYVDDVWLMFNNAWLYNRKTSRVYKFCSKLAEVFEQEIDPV
# Protocol: A series of concentrations of the compound from 0.01 nM to 100 μM were added into a 384 well test plate and mixed with other reaction components based on the instructions from vendor followed by incubation 1 h at room temperature. […] The plates were read in time-resolved format by exciting the sample at 340 nm and reading emissions at 620 and 670 nm, using a 100 μs delay and a 500 μs window at a Tecan M1000 pro reader.
smiles,measurement,setting,value
"Cc1sc2c(c1C)C(c1ccc(Cl)cc1)=N[C@@H](CC(=O)OC(C)(C)C)c1nnc(C)n1-2 [JQ1, reference compound]",activation of latent HIV (GFP expression),[1],activates HIV
same,RNAPII activation (phosphorylation of CTD Ser2),[2],potentiated its activation
same,BRD4 binding to HIV promoter,[3],reduced this binding
same,effect on PMA-induced HIV activation (GFP+%),[4],synergistically enhances PMA-stimulated HIV activation
same,HIV mRNAs (Gag and 3'-LTR RNA levels),[5],enhances their levels
same,binding to BD1 and BD2 of BET proteins,[6],non-selectively binds to both BD1 and BD2 all four BET proteins
same,nucleosomal DNA protection in HIV LTR,[7],reduced nucleosomal DNA protection in several amplicon regions
same,recruitment of Tat to HIV promoter,[8],enhanced binding of Tat to HIV promoter
same,CDK9 binding to Tat,[9],enhanced CDK9 binding to Tat
same,ELL2 protein,[10],increased its level
"O=C(Nc1ccc(C(F)(F)F)cc1)Nc1ccc(S(=O)(=O)N2CCCC2C(=O)Nc2ccccc2)cc1 (stereo in doubt) [ZL0580, (R)—N-Phenyl-1-((4-(3-(4-(trifluoromethyl)phenyl)ureido)phenyl)sulfonyl)pyrrolidine-2-carboxamide]",RNAPII activation (phosphorylation of CTD Ser2),[2],reduced RNAII activation
same,concentrations without significant PBMC death,[11]; 0-80 μM,below 40 μM
same,PBMC viability,"[11]; 8 μM vs NC, PHA-activated, 3 days",comparable between NC and ZL0580 treatment
same,IC50,[12],1070 nM
same,BRD4 binding to HIV promoter,[3],promoted BRD4 binding to HIV promoter
same,concentrations without significant cell death,"[13]; 0-80 μM, 1 & 3 days",below 40 μM
same,cell death vs NC,"[13]; 10 μM, Day 2, 7 and 14, PMA-activated and un-stimulated",did not cause significant cell death
same,dose dependence of suppression of PMA-induced HIV activation,"[4]; PMA + 0, 1, 10, 20 μM",suppresses PMA-induced HIV activation in dose-dependent manner
same,effect on PMA-induced HIV activation (GFP+%),[4],suppresses PMA-induced HIV activation
same,HIV transcription (Gag RNA) in PBMCs,[14],reduced HIV transcription in PBMCs
same,cell-associated HIV DNA,[14],did not significantly alter HIV DNA levels
same,"Gag and 3'-LTR RNA expression, vector control cells",[15],substantially inhibit Gag and 3′-LTR RNA expression
same,HIV suppression (GFP) in BRD4-KO cells,[15],failed to induce HIV suppression in BRD4-KO cells
same,HIV suppression in BRD4-KO cells with exogenous BRD4 expression,[15],restored to large extent the ability of ZL0580 to suppress HIV in these cells
same,"inhibition of Gag and 3'-LTR RNA, BRD4-KO cells",[15],largely abrogated in the BRD4-KO cells
same,HIV Gag mRNA ex vivo,[16]; PHA-stimulated RV21 PBMC (n=8),suppress HIV transcription ex vivo in all eight PBMC samples
same,reduction of RNA levels in some subjects,[16]; PHA-stimulated RV21 PBMC,greater than 10 fold
same,HIV mRNAs (Gag and 3'-LTR RNA levels),[5],reduces both Gag and 3′-LTR RNA levels
same,HIV reactivation by LRAs after pre-treatment,"[5]; resting J-Lat, single dose 10 μM for 3 days, then SAHA or Prostratin",renders J-Lat cells more resistant to HIV reactivation by SAHA or Prostratin
same,kinetics of HIV transcription (3'-LTR RNA),"[5]; single treatment 10 μM, PMA-activated or resting, Day 2, 7, 14",suppresses both PMA-stimulated and basal HIV transcription through Day 14 after treatment
same,CDK9 binding to BRD4,[17],enhanced CDK9 binding to BRD4
same,binding activity to non-specific cellular proteins,[18],no or weak binding activity
same,toxicity to RV254 PBMCs,[19],did not cause significant toxicity to these cells
same,HIV in unactivated CD4 T cells (p24+%),[20],dose-dependently suppresses HIV in unactivated CD4 T cells
same,nucleosomal DNA protection in HIV LTR,[7],enhanced nucleosomal DNA protection in the majority of amplicon regions (6-20)
same,HIV infection in activated CD4 T cells (intracellular p24),[21],suppress HIV in activated human CD4 T cells in a dose-dependent manner
same,productive HIV infection in CD4 T cells,[21]; single treatment 8 μM,almost complete loss of productive HIV infection in CD4 T cells
same,IC50,[22],163 nM
same,production of HIV particles in cell culture supernatants,[23],significantly reduced
same,IC50,[24],> 10000 nM
same,recruitment of Tat to HIV promoter,[8],reduced Tat recruitment to HIV promoter
same,CDK9 binding to Tat,[9],reduced CDK9 binding to Tat
same,ELL2 protein,[10],substantially reduced ELL2 protein
COC(=O)[C@@H]1CCCN1S(=O)(=O)c1ccc(NC(=O)Nc2cccc(C(F)(F)F)c2)cc1 [ZL0506],effect on PMA-induced HIV activation (GFP+%),[4],modestly suppress HIV
Cc1cc(N=Nc2ccc(S(=O)(=O)NC3CCCC3)cc2)c(N)cc1O [ZL0454],activation of latent HIV (GFP expression),[1],modestly activate HIV
same,effect on PMA-induced HIV activation (GFP+%),[4],synergistically enhanced PMA-induced HIV activation
same,HIV infection in activated CD4 T cells (intracellular p24),[21],did not suppress HIV in CD4 T cells
